Patent US8247211B2, “Glycopeptide antibiotics” (American Cyanamid Company, priority 2001, dated 2012)
Values after ≈ are worked out from the molar mass of the structure shown. Like-named read-outs stand apart in the source and are kept apart here. Numbered stars: 1 amine (or outer) side, 2 acyl side, 3 side chain; on linkers, the order of the positions; unused ones are H or OH. Square brackets hold non-standard residues; d marks the D form. Peptide text beside a SMILES is read from it. * marks the point of attachment. ξ: configuration not given here. X1 = N=C1NCC(C(O)C(N[*:1])C(=O)[*:2])N1C1OC(CO)C(O)C(O)C1O; ξEnduracididine(βξ-OH,4'ξ) = N=C1NCC(C(O)C(N)C(=O)O)N1; X2 = OCC1OC(OC2C(CO)OC(*)C(O)C2O)C(O)C(O)C1O; ξCha(3ξ-Me) = CC(C1CCCCC1)C(N)C(=O)O; Cha = N[CH](CC1CCCCC1)C(=O)O

Assays:
Experiment in all cases: In vitro antibacterial evaluation: minimum inhibitory concentration (MIC), broth dilution method
Format in all cases: cell-based
[1] = tested on: Escherichia coli
[2] = tested on: Enterococcus sp.
Summary of the method: (§1)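 Using Muller-Hinton II […] and an inoculum of 5×10^5 CFU/mL, antibiotic dilutions from 64 down to 0.06 μg/mL were tested following NCCLS M7-A2. The MIC is the lowest concentration inhibiting growth, including in methicillin-, penicillin- or vancomycin-resistant clinical isolates.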

[3] = tested on: Streptococcus sp.
Summary of the method: as §1

[4] = tested on: Staphylococcus sp.
Summary of the method: as §1

[5] = broth dilution, 18 hours at 35° C.
[6] = Enterococcus faecalis (GC 2242), broth dilution, 18 hours at 35° C.
[7] = Enterococcus faecalis (GC 2691), broth dilution, 18 hours at 35° C.
[8] = Enterococcus faecalis (GC 3059), broth dilution, 18 hours at 35° C.
[9] = Streptococcus agalactiae (GC 4564), broth dilution, 18 hours at 35° C.
[10] = Streptococcus pneumoniae (ATCC 6301), broth dilution, 18 hours at 35° C.
[11] = Streptococcus pneumoniae (GC 1894), broth dilution, 18 hours at 35° C.
[12] = Streptococcus pneumoniae (GC 4565), broth dilution, 18 hours at 35° C.
[13] = Streptococcus pyogenes (GC 4563), broth dilution, 18 hours at 35° C.
[14] = strain SMITH GC 4543, broth dilution, 18 hours at 35° C.

Compound: CC(C1CCCCC1)C1NC(=O)CNC(=O)C(CO)NC(=O)C(C(O)C2CNC(=N)N2C2OC(CO)C(O)C(O)C2O)NC(=O)C(C(O)C2CNC(=N)N2)NC(=O)C(Cc2ccc(OC3OC(CO)C(OC4OC(CO)C(O)C(O)C4O)C(O)C3O)cc2)NC1=O (stereo not drawn) [Example 51, Cyclo[3-cyclohexyl-2-aminobutyl-O-(4-O-hexopyranosylhexopyranosyl)tyrosyl-3-(2-iminoimidazolidin-4-yl)seryl-3-(3-hexopyranosyl-2-iminoimidazolidin-4-yl)-serylserylglycyl]] (cyclo(G[ξCha(3ξ-Me)]Y(X2)[ξEnduracididine(βξ-OH,4'ξ)][X1]S); configuration not given here)
- MIC Escherichia coli (ATCC 25922) [1, 5]: >64 µg/mL
- MIC Escherichia coli (GC 4559) [1, 5]: 64 µg/mL (≈ 49.2 µM)
- MIC Escherichia coli (GC 4560) [1, 5]: 8 µg/mL (≈ 6.15 µM)
- MIC Enterococcus avium (GC 4558) ([2]; Enterococcus avium (GC 4558), broth dilution, 18 hours at 35° C.): 64 µg/mL (≈ 49.2 µM)
- MIC Enterococcus faecalis (ATCC 29212) ([2]; Enterococcus faecalis (ATCC 29212), broth dilution, 18 hours at 35° C.): >64 µg/mL
- MIC Enterococcus faecalis (GC 2242) [2, 6]: 64 µg/mL (≈ 49.2 µM)
- MIC Enterococcus faecalis (GC 2691) [2, 7]: >64 µg/mL
- MIC Enterococcus faecalis (GC 3059) [2, 8]: >64 µg/mL
- MIC Enterococcus faecalis (GC 4552) ([2]; Enterococcus faecalis (GC 4552), broth dilution, 18 hours at 35° C.): >64 µg/mL
- MIC Enterococcus faecalis (GC 4553) ([2]; Enterococcus faecalis (GC 4553), broth dilution, 18 hours at 35° C.): >64 µg/mL
- MIC Enterococcus faecalis (GC 4554) ([2]; Enterococcus faecalis (GC 4554), broth dilution, 18 hours at 35° C.): >64 µg/mL
- MIC Enterococcus faecalis (GC 6189) ([2]; Enterococcus faecalis (GC 6189), broth dilution, 18 hours at 35° C.): >64 µg/mL
- MIC Enterococcus faecium (GC 2243) ([2]; Enterococcus faecium (GC 2243), broth dilution, 18 hours at 35° C.): >64 µg/mL
- MIC Enterococcus faecium (GC 4556) ([2]; Enterococcus faecium (GC 4556), broth dilution, 18 hours at 35° C.): >64 µg/mL
- MIC Enterococcus faecium (GC 4557) ([2]; Enterococcus faecium (GC 4557), broth dilution, 18 hours at 35° C.): 16 µg/mL (≈ 12.3 µM)
- MIC Enterococcus avium (GC 4558) [2, 5]: 64 µg/mL (≈ 49.2 µM)
- MIC Enterococcus faecalis (ATCC 29212) [2, 5]: >64 µg/mL
- MIC Enterococcus faecalis (GC 2242) [2, 5]: 64 µg/mL (≈ 49.2 µM)
- MIC Enterococcus faecalis (GC 2691) [2, 5]: >64 µg/mL
- MIC Enterococcus faecalis (GC 3059) [2, 5]: >64 µg/mL
- MIC Enterococcus faecalis (GC 4552) [2, 5]: >64 µg/mL
- MIC Enterococcus faecalis (GC 4553) [2, 5]: >64 µg/mL
- MIC Enterococcus faecalis (GC 4554) [2, 5]: >64 µg/mL
- MIC Enterococcus faecalis (GC 6189) [2, 5]: >64 µg/mL
- MIC Enterococcus faecium (GC 2243) [2, 5]: >64 µg/mL
- MIC Enterococcus faecium (GC 4556) [2, 5]: >64 µg/mL
- MIC Enterococcus faecium (GC 4557) [2, 5]: 16 µg/mL (≈ 12.3 µM)
- MIC Streptococcus agalactiae (GC 4564) [3, 9]: 16 µg/mL (≈ 12.3 µM)
- MIC Streptococcus pneumoniae (ATCC 6301) [3, 10]: 8 µg/mL (≈ 6.15 µM)
- MIC Streptococcus pneumoniae (GC 1894) [3, 11]: 4 µg/mL (≈ 3.07 µM)
- MIC Streptococcus pneumoniae (GC 4565) [3, 12]: 8 µg/mL (≈ 6.15 µM)
- MIC Streptococcus pyogenes (GC 4563) [3, 13]: 8 µg/mL (≈ 6.15 µM)
- MIC Streptococcus agalactiae (GC 4564) [3, 5]: 16 µg/mL (≈ 12.3 µM)
- MIC Streptococcus pneumoniae (ATCC 6301) [3, 5]: 8 µg/mL (≈ 6.15 µM)
- MIC Streptococcus pneumoniae (GC 1894) [3, 5]: 4 µg/mL (≈ 3.07 µM)
- MIC Streptococcus pneumoniae (GC 4565) [3, 5]: 8 µg/mL (≈ 6.15 µM)
- MIC Streptococcus pyogenes (GC 4563) [3, 5]: 8 µg/mL (≈ 6.15 µM)
- MIC Coagulase Negative Staphylococcus (GC 4547) [4, 5]: 16 µg/mL (≈ 12.3 µM)
- MIC Coagulase Negative Staphylococcus (GC 4548) [4, 5]: 16 µg/mL (≈ 12.3 µM)
- MIC Coagulase Negative Staphylococcus (GC 4549) [4, 5]: 4 µg/mL (≈ 3.07 µM)
- MIC Coagulase Negative Staphylococcus (GC 4551) [4, 5]: 64 µg/mL (≈ 49.2 µM)
- MIC Staphylococcus aureus SMITH (GC 4543) [4, 5]: 32 µg/mL (≈ 24.6 µM)
- MIC Staphylococcus haemolyticus (GC 4546) [4, 5]: 32 µg/mL (≈ 24.6 µM)
- MIC Staphylococcus aureus-SMITH (GC 4543) [4, 14]: 32 µg/mL (≈ 24.6 µM)

Compound: CC(C1CCCCC1)C1NC(=O)CNC(=O)C(CO)NC(=O)C(C(O)C2CNC(=N)N2C2OC(CO)C(O)C(O)C2O)NC(=O)C(C(O)C2CNC(=N)N2)NC(=O)C(CC2CCCCC2)NC1=O (stereo not drawn) [Example 53, Cyclo[3-cyclohexylalanyl-3-(2-iminoimidazolidin-4-yl)seryl-3-(3-hexopyranosyl-2-iminoimidazolidin-4-yl)serylserylglycyl-3-cyclohexyl-2-aminobutanoyl]] (cyclo(G[ξCha(3ξ-Me)][Cha][ξEnduracididine(βξ-OH,4'ξ)][X1]S); configuration not given here)
- MIC Escherichia coli (GC 4560) [1, 5]: 4 µg/mL (≈ 4.14 µM)
- MIC Enterococcus faecalis (GC 2242) [2, 6]: 8 µg/mL (≈ 8.27 µM)
- MIC Enterococcus faecalis (GC 2691) [2, 7]: 8 µg/mL (≈ 8.27 µM)
- MIC Enterococcus faecalis (GC 3059) [2, 8]: 8 µg/mL (≈ 8.27 µM)
- MIC Enterococcus avium (GC 4558) [2, 5]: 4 µg/mL (≈ 4.14 µM)
- MIC Enterococcus faecalis (ATCC 29212) [2, 5]: 8 µg/mL (≈ 8.27 µM)
- MIC Enterococcus faecalis (GC 2242) [2, 5]: 8 µg/mL (≈ 8.27 µM)
- MIC Enterococcus faecalis (GC 2691) [2, 5]: 8 µg/mL (≈ 8.27 µM)
- MIC Enterococcus faecalis (GC 3059) [2, 5]: 8 µg/mL (≈ 8.27 µM)
- MIC Enterococcus faecalis (GC 4552) [2, 5]: 8 µg/mL (≈ 8.27 µM)
- MIC Enterococcus faecalis (GC 4553) [2, 5]: 4 µg/mL (≈ 4.14 µM)
- MIC Enterococcus faecalis (GC 4554) [2, 5]: 16 µg/mL (≈ 16.5 µM)
- MIC Enterococcus faecalis (GC 6189) [2, 5]: 4 µg/mL (≈ 4.14 µM)
- MIC Enterococcus faecium (GC 2243) [2, 5]: 2 µg/mL (≈ 2.07 µM)
- MIC Enterococcus faecium (GC 4556) [2, 5]: 8 µg/mL (≈ 8.27 µM)
- MIC Enterococcus faecium (GC 4557) [2, 5]: 2 µg/mL (≈ 2.07 µM)
- MIC Streptococcus agalactiae (GC 4564) [3, 9]: 1 µg/mL (≈ 1.03 µM)
- MIC Streptococcus pneumoniae (ATCC 6301) [3, 10]: 1 µg/mL (≈ 1.03 µM)
- MIC Streptococcus pneumoniae (GC 1894) [3, 11]: 1 µg/mL (≈ 1.03 µM)
- MIC Streptococcus pneumoniae (GC 4565) [3, 12]: 4 µg/mL (≈ 4.14 µM)
- MIC Streptococcus pyogenes (GC 4563) [3, 13]: 1 µg/mL (≈ 1.03 µM)
- MIC Streptococcus agalactiae (GC 4564) [3, 5]: 1 µg/mL (≈ 1.03 µM)
- MIC Streptococcus pneumoniae (ATCC 6301) [3, 5]: 1 µg/mL (≈ 1.03 µM)
- MIC Streptococcus pneumoniae (GC 1894) [3, 5]: 1 µg/mL (≈ 1.03 µM)
- MIC Streptococcus pneumoniae (GC 4565) [3, 5]: 4 µg/mL (≈ 4.14 µM)
- MIC Streptococcus pyogenes (GC 4563) [3, 5]: 1 µg/mL (≈ 1.03 µM)
- MIC Coagulase Negative Staphylococcus (GC 4547) [4, 5]: 2 µg/mL (≈ 2.07 µM)
- MIC Coagulase Negative Staphylococcus (GC 4548) [4, 5]: 2 µg/mL (≈ 2.07 µM)
- MIC Coagulase Negative Staphylococcus (GC 4549) [4, 5]: 1 µg/mL (≈ 1.03 µM)
- MIC Coagulase Negative Staphylococcus (GC 4551) [4, 5]: 2 µg/mL (≈ 2.07 µM)
- MIC Staphylococcus aureus SMITH (GC 4543) [4, 5]: 2 µg/mL (≈ 2.07 µM)
- MIC Staphylococcus haemolyticus (GC 4546) [4, 5]: 1 µg/mL (≈ 1.03 µM)
- MIC Staphylococcus aureus-SMITH (GC 4543) [4, 14]: 2 µg/mL (≈ 2.07 µM)

Compound: Cyclo[3-[[2-(2,3,4,6-tetra-O-benzoylhexopyranosyl)amino]-1,3-benzoxazol-5-yl]alanyl-3-(2-iminoimidazolidin-4-yl)seryl-3-(3-hexopyranosyl-2-iminoimidazolidin-4-yl)seryl-serylglycyl-β-methylphenylalanyl] [Example 44]
- MIC Escherichia coli (ATCC 25922) [1]: >64 µg/mL
- MIC Escherichia coli (GC 4559) [1]: >64 µg/mL
- MIC Escherichia coli (GC 4560) [1]: 64 µg/mL
- MIC Enterococcus avium (GC 4558) [2]: 4 µg/mL
- MIC Enterococcus faecalis (ATCC 29212) [2]: 16 µg/mL
- MIC Enterococcus faecalis (GC 2242) [2]: 16 µg/mL
- MIC Enterococcus faecalis (GC 2691) [2]: 16 µg/mL
- MIC Enterococcus faecalis (GC 3059) [2]: 32 µg/mL
- MIC Enterococcus faecalis (GC 4552) [2]: 16 µg/mL
- MIC Enterococcus faecalis (GC 4553) [2]: 8 µg/mL
- MIC Enterococcus faecalis (GC 4554) [2]: 32 µg/mL
- MIC Enterococcus faecalis (GC 6189) [2]: 16 µg/mL
- MIC Enterococcus faecium (GC 2243) [2]: 8 µg/mL
- MIC Enterococcus faecium (GC 4556) [2]: 32 µg/mL
- MIC Enterococcus faecium (GC 4557) [2]: 8 µg/mL
- MIC Streptococcus agalactiae (GC 4564) [3]: 16 µg/mL
- MIC Streptococcus pneumoniae (ATCC 6301) [3]: 8 µg/mL
- MIC Streptococcus pneumoniae (GC 1894) [3]: 16 µg/mL
- MIC Streptococcus pneumoniae (GC 4565) [3]: 32 µg/mL
- MIC Streptococcus pyogenes (GC 4563) [3]: 4 µg/mL
- MIC Coagulase Negative Staphylococcus (GC 4547) [4]: 64 µg/mL
- MIC Coagulase Negative Staphylococcus (GC 4548) [4]: 8 µg/mL
- MIC Coagulase Negative Staphylococcus (GC 4549) [4]: 2 µg/mL
- MIC Coagulase Negative Staphylococcus (GC 4551) [4]: 16 µg/mL
- MIC Coagulase Negative Staphylococcus (GC 6257) [4]: 8 µg/mL
- MIC Staphylococcus aureus (ATCC 29213) [4]: 64 µg/mL
- MIC Staphylococcus aureus (GC 1131) [4]: 64 µg/mL
- MIC Staphylococcus aureus (GC 3051) [4]: 64 µg/mL
- MIC Staphylococcus aureus (GC 3053) [4]: 32 µg/mL
- MIC Staphylococcus aureus (GC 4541) [4]: 64 µg/mL
- MIC Staphylococcus aureus (GC 4542) [4]: 64 µg/mL
- MIC Staphylococcus aureus (GC 4544) [4]: 16 µg/mL
- MIC Staphylococcus aureus (GC 4545) [4]: 16 µg/mL
- MIC Staphylococcus aureus SMITH (GC 4543) [4]: 32 µg/mL
- MIC Staphylococcus aureus-SMITH (GC 4543) [4]: 32 µg/mL
- MIC Staphylococcus haemolyticus (GC 4546) [4]: 64 µg/mL
